Results published in US20230225990A1, “DIMETHYL SULFONE FOR TREATMENT OF CHRONICALLY HEAT STRESSED POULTRY” (Evonik Operations GmbH, priority 2020, published 2023).
Marks after values point to notes of the source that are not given here.

Columns and labels:
[1] = system: male broilers subjected to chronic cyclic heat stress; test: Animal performance (BW, ADG, ADFI, F:G, mortality, EPEF) with chronic cyclic heat stress in the finisher phase; assay type: in vivo, broiler chickens (Ross 308); details: for FIhs (percentage of total feed intake consumed during hours of heat stress): 6 h heat stress per day, d-24 till d-39; for F:G corrected: total d0-d39, corrected to final body weight of 3050 g
From the text: The experimental design consisted of one control group (T1) and two other groups receiving the control diet supplemented with increasing levels of DMS (dimethyl sulfone), specifically 0.1% DMS (T2) and 0.2% DMS (T3). Treatments were replicated in 12 pens each in a completely randomized block design. Block refers to physical allocation in the experimental facility. All the animal trial was realized in compliance with the Ethics Committee of Faculty of Veterinary Medicine (Ghent University, EC2018-71).
The experiment was conducted at the experimental facilities of the Department of Animal Sciences and Aquatic Ecology of Ghent University, located in Melle, Belgium. A total of 792 male broiler chickens (Ross 308, Aviagen Group) were provided by Vervaeke-Belavi hatchery (Tielt, Belgium). Larger treatment effects are expected with males, as they are more sensitive to heat stress (HS) (Cahaner and Leenstra, 1992). The experiment consisted in three rearing phases: starter (from d-0 to d-10), grower (from d-10 to d-21) and finisher (from d-21 to d-39). The one-day old chicks were weighted and equally spread among the pens according to their body weight (BW). Pens were randomly allocated to the treatment groups. The initial average animal BW was 41.3±0.31 g at the beginning of the experiment. The newly selected chicks were housed in a single climate-controlled room, which contained 36 pens of 22 animals each. […] The room was equipped with liner drinkers (two nipples per pen), and each pen had one tube-type metallic feeder. Temperature in starter and grower phase was set to decrease linearly from 34° C., at d-0 until a basal temperature of 22° C., at d-24. The light of the room was turned on 23 h in period d-0 to d-7, and then turned on at 4:00 and switched off at 22:00 during the rest of the experiment (18L:6D).
The finisher period started at d-21, and the chronic cyclic heat stress (HS) protocol was applied from d-24 until d-39. Starting from d-24, the temperature was increased from 22° C. to 34° C. for 6 hours per day (from 9:00 to 15:00) with relative air humidity (RH) between 52 and 58%. From 8:00 to 9:00, the temperature was increased from 22° C. to 34° C., and from 15:00 to 16:00, the temperature was decreased from 34° C. to 22° C. The rest of the day the temperature was 22° C. The room was equipped with heaters with thermostats, and air circulators to enable the desired temperature and RH to be maintained, providing sufficient ventilation and air conditions. RH was adjusted with manual spraying of water on stable walls, periodically. The temperature and the RH were recorded at 10-min intervals with a dry bulb thermo-hygrometer (Escort RH iLog, Escort Verification Technologies Inc., Buchanan, United States).
Wheat and soybean meal-based feeds were formulated to meet the nutrient requirements of broiler chickens, according to Ross308 recommendations or slightly lower to avoid excessive mortality in the finisher phase. […] The final formulation was approved by the commissioner. The test substance dimethyl sulfone was added on top at 0.1 and 0.2% in T2 and T3 in all rearing phases, respectively. Diets were processed by Research Dietary Services (RDS, Wijk bij Duurstede, The Netherlands) and delivered to Ghent University. All the diets were provided as pellets during all rearing phases. The chickens were fed ad libitum and had free access to water during the whole experiment.
For all performance indices, the pen is the experimental unit. Total feed intake (FI) was recorded for each rearing period. In addition, FI during HS period was recorded every day, weighing the feeders before (at 8:00) and after (at 16:00) HS every day. That allows the calculation of the relative FI during period with HS relative to the total FI for each day during HS (d-24 to d-39). The total body weight (BW) of each pen was recorded at d-0, d-10, d-21 and d-39, and divided by the number of chickens in the pen at that day to have the average BW for each pen. […]

[2] = system: chronically heat stressed poultry; test: Litter moisture; assay type: in vivo; details: control diet+0.05 wt.-% DMS; d-42
From the text: For this purpose, two treatments (T1: control diet, and T2: control diet+0.05 wt.-% DMS) were done with 13 replicate pens each and 10 birds per pen. Collection of litter was done at days 28 and 42 to determine litter moisture. The sampling of the litter was done in five different points in each pen (each corner and the centre of each pen) and then homogenized to compose the representative sample of the pen. […] Calculating was done according to the formula: […]

[3] = 0.1% DMS in diet (T2), d-24 to d-39, excluding pen 24
[4] = 0.1% DMS in diet (T2), finisher d21-d39, heat stress d-24 till d-39
[5] = 0.1% DMS in diet (T2), grower d10-d21
[6] = 0.1% DMS in diet (T2), starter d0-d10
[7] = 0.1% DMS in diet (T2), total d0-d39
[8] = 0.2% DMS in diet (T3), d-24 to d-39, excluding pen 24
[9] = 0.2% DMS in diet (T3), finisher d21-d39, heat stress d-24 till d-39
[10] = 0.2% DMS in diet (T3), grower d10-d21
[11] = 0.2% DMS in diet (T3), starter d0-d10
[12] = 0.2% DMS in diet (T3), total d0-d39

Structure (SMILES): CS(C)(=O)=O [DMS, dimethyl sulfone]
- FIhs (percentage of total feed intake consumed during hours of heat stress) ([1]; 0.1% DMS in diet (T2)): 27.9%
- Cases of mortality [1, 3]: 10
- Cases of mortality+culling [1, 3]: 12
- Cases of mortality+culling ([1]; 0.1% DMS in diet (T2), d-24 to d-39, pen 24 included): 17
- ADFI [1, 4]: 179 g/day
- ADG [1, 4]: 106 g/day
- F:G [1, 4]: 1.71
- Final BW [1, 4]: 3100 g
- Mortality [1, 4]: 4.7%
- Mortality + culling [1, 4]: 6.0%
- ADFI [1, 5]: 103 g/day
- ADG [1, 5]: 75.5^a g/d
- ADG higher as compared to control [1, 5]: 2.6%
- F:G [1, 5]: 1.36^b
- F:G reduced as compared to control [1, 5]: 6 points
- Final BW [1, 5]: 1189 g
- Mortality [1, 5]: 1.1%
- Mortality + culling [1, 5]: 1.1%
- ADFI [1, 6]: 32.5 g/day
- ADG [1, 6]: 31.7 g/day
- F:G [1, 6]: 1.03
- Final BW [1, 6]: 359 g
- Mortality [1, 6]: 0.0%
- Mortality + culling [1, 6]: 0.0%
- ADFI [1, 7]: 116 g/day
- ADG [1, 7]: 78.4 g/day
- EPEF (European production efficiency factor) [1, 7]: 488
- F:G [1, 7]: 1.53
- Mortality [1, 7]: 5.9%
- Mortality + culling [1, 7]: 7.3%
- F:G corrected ([1]; 0.1% DMS in diet (T2)): 1.54
- FIhs (percentage of total feed intake consumed during hours of heat stress) ([1]; 0.2% DMS in diet (T3)): 27.9%
- Cases of mortality [1, 8]: 8
- Cases of mortality+culling [1, 8]: 8
- Cases of mortality+culling ([1]; 0.2% DMS in diet (T3), d-24 to d-39, pen 24 included): 8
- ADFI [1, 9]: 178 g/day
- ADG [1, 9]: 104 g/day
- F:G [1, 9]: 1.72
- Final BW [1, 9]: 3066 g
- Mortality [1, 9]: 3.1%
- Mortality + culling [1, 9]: 3.1%
- ADFI [1, 10]: 102 g/day
- ADG [1, 10]: 76.1^a g/d
- ADG higher as compared to control [1, 10]: 3.4%
- F:G [1, 10]: 1.35^b
- F:G reduced as compared to control [1, 10]: 7 points
- Final BW [1, 10]: 1194 g
- Mortality [1, 10]: 0.4%
- Mortality + culling [1, 10]: 0.8%
- ADFI [1, 11]: 32.3 g/day
- ADG [1, 11]: 31.6 g/day
- F:G [1, 11]: 1.03
- Final BW [1, 11]: 357 g
- Mortality [1, 11]: 0.8%
- Mortality + culling [1, 11]: 0.8%
- ADFI [1, 12]: 117 g/day
- ADG [1, 12]: 77.6 g/day
- EPEF (European production efficiency factor) [1, 12]: 491
- F:G [1, 12]: 1.54
- Mortality [1, 12]: 4.2%
- Mortality + culling [1, 12]: 4.5%
- F:G corrected ([1]; 0.2% DMS in diet (T3)): 1.54
- Moisture content in the litter [2]: clear reduction
